Source: patent US7579432B2, “Cyclic peptides as G-protein-coupled receptor antagonists” (Promics Pty Limited, priority 2001, dated 2009)

Tests used:
[1] = Plasma levels after topical dermal administration; assay type: in vivo, rat; settings: dermal application, 50 mg/kg, DMSO/distilled H2O or PG/H2O
Experimental: Female and male Wistar rats (200-250 g) were anaesthetized with 1 mL of zoletil (50 mg/kg) and xylazine (10 mg/kg; Lyppard, Australia), which was injected intraperitoneally. An area of 5×10 cm was shaved and marked on the lower abdominal area of the rat, on to which the dose of drug was applied. A stock solution containing 10 mg/ml of C5a antagonist was dissolved in solvents propylene glycol or dimethylsulfoxide at varying concentrations with water and smeared evenly on the shaved abdominal area of the rat with a spatula. A heating pad was used to maintain the body temperature of the rats and blood samoles were taken at 15 min intervals for the first hour, and after that at 1 hr intervals for a total period or 3 hours.
Blood samples were immediately added to tubes containing heparin (500 Units/μL) and centrifuged (11000×g). […] The fluid portions of the samples were placed in 1 mL Eppendorf tubes and stored until analysed.
These samples were transferred to 96 well plates and evaporated to dryness using a GeneVac centrifugal evaporator, then reconstituted in the wells with mobile phase (20 μL) Analysis of samples was performed by liquid chromatography (LCMS) using an Agilent 1100 series HPLC equipped with a well plate autosampler coupled with a PE Sciex Qstar Pulsar ESI-TOF mass spectrometer. Concentrations were determined from a standard curve of drug:internal standard peak area ratios. […]

C5a-induced neutropenia = C5a-induced neutropenia after topical administration; assay type: in vivo; settings: topical 10 mg/per rat in 50% propylene glycol and 50% distilled H2O; C5a 2 μg/kg i.v.
Experimental: Female Wistar rats weighing between 200-250 g were used for in vivo testing of all C5a receptor antagonists. Rats were anaesthetized using the procedure described above, and transferred on to a heating pad to ensure that body temperature was maintained throughout the experiment. A catheter was inserted in the femoral vein, secured with a suture and flushed with 100 μL of heparinised saline. Rats were dosed with either the antagonist or vehicle, intravenously (1 mg kg^−1 in 200 μL saline containing 10% ethanol, 10 min prior to LPS challenge) or topically ([…] challenge) Rats were infused i.v via the femoral catheter with either LPS (1 mg kg^−1 i.v in 100 μL saline), recombinant human C5a (2 μgkg^−1 in 100 μL), or vehicle control 10 minutes after the iv administration or 60 min after topical administration, of antagonist or vehicle control. All agents infused i.v were injected over a 2 min period, and were followed with a subsequent injection of 100 μL of saline to ensure complete delivery of the drug.
Whole blood samples (0.1 mL) were collected from the tail vein at the time of drug and LPS or C5a administration. […] The number of PMNs was counted on a haemocytometer. The number of cells at each time point was calculated as a percentage of the total number of cells at time zero, prior to complement challenge or LPS. […]

**Q.** For `CC(=O)N[C@@H](Cc1ccccc1)C(=O)N[C@H]1CCCNC(=O)[C@H](CCCNC(=N)N)NC(=O)[C@H](Cc2c[nH]c3ccccc23)NC(=O)[C@@H](CC2CCCCC2)NC(=O)[C@@H]2CCCN2C1=O` [Compound 1, Ac-Phe-[Orn-Pro-dCha-Trp-Arg]], which “appearance of the C5a antagonist in the circulating plasma” value [1] is on record?
**A.** The value was no more than 15 min.

**Q.** What about the “persistence of significant plasma levels” value [1] of the same compound?
**A.** Its value is “at least 4 hr”.

**Q.** And the “neutropaenic effects of i.v. C5a” value (C5a-induced neutropenia)?
**A.** Its value is “prevent the neutropaenic effects of C5a”.
